Columns and labels:
CK1ε = CK1ε (Homo sapiens (Human), UniProt P49674); assay: CK1ε kinase assay (Caliper LabChip, fluoresceinated peptide substrate); assay type: biochemical; details: 200 pM CK1ε, 50 μM ATP, 1.5 μM peptide substrate, 22 hours room temperature
Experimental: (§1) CK1ε and CK1δ Kinase Assays
(§2) The kinase assay was performed in V-bottom 384-well plates. […] The reaction was incubated at room temperature for 22 hours and terminated by adding 45 μl of 35 mM EDTA to each sample. […] Compounds were dissolved at 10 mM in dimethylsulfoxide (DMSO) and evaluated at eleven concentrations. IC50 values were derived by non-linear regression analysis.

CK1δ = CK1δ (Homo sapiens (Human), UniProt P48730); assay: CK1δ kinase assay (Caliper LabChip, fluoresceinated peptide substrate); assay type: biochemical; details: 200 pM CK1δ, 50 μM ATP, 1.5 μM peptide substrate, 22 hours room temperature
Sequence of CK1δ (P48730 whole entry): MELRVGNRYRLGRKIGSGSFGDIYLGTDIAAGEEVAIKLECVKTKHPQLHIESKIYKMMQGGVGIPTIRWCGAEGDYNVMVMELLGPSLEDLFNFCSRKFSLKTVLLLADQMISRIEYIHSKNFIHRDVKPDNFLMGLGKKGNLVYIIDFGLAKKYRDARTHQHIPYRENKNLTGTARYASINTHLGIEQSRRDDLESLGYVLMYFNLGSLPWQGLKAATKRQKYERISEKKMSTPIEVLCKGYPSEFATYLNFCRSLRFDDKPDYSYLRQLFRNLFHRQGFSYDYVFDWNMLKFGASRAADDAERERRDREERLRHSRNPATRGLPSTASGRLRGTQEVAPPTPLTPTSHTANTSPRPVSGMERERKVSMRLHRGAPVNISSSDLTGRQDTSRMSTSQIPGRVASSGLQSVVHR
Experimental: as §1, §2

Sequence of CK1ε (P49674 whole entry): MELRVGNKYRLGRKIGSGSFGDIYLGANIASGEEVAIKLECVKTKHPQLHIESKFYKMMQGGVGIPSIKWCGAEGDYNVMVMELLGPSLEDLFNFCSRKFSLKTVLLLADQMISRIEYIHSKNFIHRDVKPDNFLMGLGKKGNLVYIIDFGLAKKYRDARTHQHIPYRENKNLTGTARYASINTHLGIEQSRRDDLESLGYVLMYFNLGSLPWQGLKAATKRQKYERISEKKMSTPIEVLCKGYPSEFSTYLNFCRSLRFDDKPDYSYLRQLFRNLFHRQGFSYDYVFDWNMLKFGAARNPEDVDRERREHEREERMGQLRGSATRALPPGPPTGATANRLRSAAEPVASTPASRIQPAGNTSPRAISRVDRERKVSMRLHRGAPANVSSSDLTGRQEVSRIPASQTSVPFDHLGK

Row | SMILES | IC50 (CK1ε) | IC50 (CK1δ)
1 | O=C(Nc1cn2nc(-c3cn(C4CC4)nc3-c3ccc(F)cc3)ccc2n1)c1cccc(-c2cccnc2)c1 [Compound 108, N-(6-(1-cyclopropyl-3-(4-fluorophenyl)-1H-pyrazol-4-yl)imidazo[1,2-b]pyridazin-2-yl)-3-(pyridin-3-yl) benzamide] | 32.6 nM | 2 nM
2 | Cn1nc(-c2ccc(F)cc2)c(-c2ccc3nc(NC(=O)c4ccncc4)cn3n2)c1N1CCNCC1 [Compound 129, N-(6-(3-(4-Fluorophenyl)-1-methyl-5-(piperazin-1-yl)-1H-pyrazol-4-yl)imidazo[1,2-b]pyridazin-2-yl)isonicotinamide] | 3.3 nM | 0.9 nM
3 | Cc1nc(-c2cccnc2)sc1C(=O)Nc1cn2nc(-c3c(-c4ccc(F)cc4)nn(C)c3C3CCN(C)CC3)ccc2n1 [Compound 175, N-(6-(3-(4-Fluorophenyl)-1-methyl-5-(1-methylpiperidin-4-yl)-1H-pyrazol-4-yl)imidazo[1,2-b]pyridazin-2-yl)-4-methyl-2-(pyridin-3-yl)thiazole-5-carboxamide] | 4 nM | 3 nM
4 | COc1cc(C(=O)Nc2cn3nc(-c4c(-c5ccc(F)cc5)nn(C)c4N4CCNCC4)ccc3n2)ccn1 [Compound 118, N-(6-(3-(4-Fluorophenyl)-1-methyl-5-(piperazin-1-yl)-1H-pyrazol-4-yl)imidazo[1,2-b]pyridazin-2-yl)-2-methoxyisonicotinamide] | 3.6 nM | 0.8 nM
5 | O=C(Nc1cn2nc(-c3cn(C4CC4)nc3-c3ccc(F)cc3)ccc2n1)C1CC1 [Compound 101, N-(6-(1-Cyclopropyl-3-(4-fluorophenyl)-1H-pyrazol-4-yl)imidazo[1,2-b]pyridazin-2-yl)cyclopropanecarboxamide] | 170 nM | 28.1 nM
6 | Cn1nc(-c2ccc(F)cc2)c(-c2ccc3nc(NC(=O)c4ccnc(F)c4)cn3n2)c1C1CCN(C[C@H](O)C(F)(F)F)CC1 [Compound 159, (S)-2-Fluoro-N-(6-(3-(4-fluorophenyl)-1-methyl-5-(1-(3,3,3-trifluoro-2-hydroxypropyl)piperidin-4-yl)-1H-pyrazol-4-yl)imidazo[1,2-b]pyridazin-2-yl)isonicotinamide] | 1.4 nM | 0.4 nM
7 | Cn1cc(-c2ccc3nc(NC(=O)c4cncc(O)c4)cn3n2)c(-c2ccc(F)cc2)n1 [Compound 70, N-(6-(3-(4-fluorophenyl)-1-methyl-1H-pyrazol-4-yl)imidazo[1,2-b]pyridazin-2-yl)-5-hydroxynicotinamide] | 4.7 nM | 2 nM
8 | Cn1nc(-c2ccc(F)cc2)c(-c2ccc3nc(NC(=O)c4ccncc4)cn3n2)c1C1CCOCC1 [Compound 197, N-(6-(3-(4-Fluorophenyl)-1-methyl-5-(tetrahydro-2H-pyran-4-yl)-1H-pyrazol-4-yl)imidazo[1,2-b]pyridazin-2-yl)isonicotinamide] | 1.8 nM | 0.3 nM
9 | Cn1nc(-c2ccc(F)cc2)c(-c2ccc3nc(NC(=O)c4ccnc(F)c4)cn3n2)c1C1CCN(CCC#N)CC1 [Compound 156, N-(6-(5-(1-(2-Cyanoethyl)piperidin-4-yl)-3-(4-fluorophenyl)-1-methyl-1H-pyrazol-4-yl)imidazo[1,2-b]pyridazin-2-yl)-2-fluoroisonicotinamide] | 2.6 nM | 0.4 nM
10 | Cn1cc(-c2ccc3nc(NC(=O)c4ccccc4F)cn3n2)c(-c2ccc(F)cc2)n1 [Compound 20, 2-fluoro-N-(6-(3-(4-fluorophenyl)-1-methyl-1H-pyrazol-4-yl)imidazo[1,2-b]pyridazin-2-yl)benzamide] | 9.2 nM | 4.3 nM
11 | Cc1nc(-c2ccncc2)sc1C(=O)Nc1cn2nc(-c3c(-c4ccc(F)cc4)nn(C)c3C3CCNCC3)ccc2n1 [Compound 179, N-(6-(3-(4-Fluorophenyl)-1-methyl-5-(piperidin-4-yl)-1H-pyrazol-4-yl)imidazo[1,2-b]pyridazin-2-yl)-4-methyl-2-(pyridin-4-yl)thiazole-5-carboxamide] | 1.5 nM | 1.4 nM
12 | Cn1cc(-c2ccc3nc(NC(=O)C45CCCC(CCC4)C5)cn3n2)c(-c2ccc(F)cc2)n1 [Compound 92, N-(6-(3-(4-fluorophenyl)-1-methyl-1H-pyrazol-4-yl)imidazo[1,2-b]pyridazin-2-yl)bicyclo[3.3.1]nonane-1-carboxamide] | 10.5 nM | 5.5 nM
13 | Cn1cc(-c2ccc3nc(NC(=O)c4ncc(-c5ccccn5)s4)cn3n2)c(-c2ccc(F)cc2)n1 [Compound 82, N-(6-(3-(4-fluorophenyl)-1-methyl-1H-pyrazol-4-yl)imidazo[1,2-b]pyridazin-2-yl)-5-(pyridin-2-yl)thiazole-2-carboxamide] | 71.5 nM | 3.3 nM
14 | Cn1cc(-c2ccc3nc(NC(=O)c4cccc(C(F)(F)F)n4)cn3n2)c(-c2ccc(F)cc2)n1 [Compound 65, N-(6-(3-(4-fluorophenyl)-1-methyl-1H-pyrazol-4-yl)imidazo[1,2-b]pyridazin-2-yl)-6-(trifluoromethyl) picolinamide] | 158 nM | 24.7 nM
15 | Cn1cc(-c2ccc3nc(NC(=O)c4ccccc4)c(Br)n3n2)c(-c2ccc(F)cc2)n1 [Compound 189, N-(3-Bromo-6-(3-(4-fluorophenyl)-1-methyl-1H-pyrazol-4-yl)imidazo[1,2-b]pyridazin-2-yl)benzamide] | 257 nM | 38.8 nM
16 | Cn1nc(-c2ccc(F)cc2)c(-c2ccc3nc(NC(=O)c4ccnc(F)c4)cn3n2)c1C1CCN(CC(N)=O)CC1 [Compound 157, N-(6-(5-(1-(2-Amino-2-oxoethyl)piperidin-4-yl)-3-(4-fluorophenyl)-1-methyl-1H-pyrazol-4-yl)imidazo[1,2-b]pyridazin-2-yl)-2-fluoroisonicotinamide] | 1.3 nM | 0.3 nM
17 | Cn1nc(-c2ccc(F)cc2)c(-c2ccc3nc(NC(=O)c4ccnc(F)c4)cn3n2)c1C1CCN(Cc2ccon2)CC1 [Compound 150, 2-Fluoro-N-(6-(3-(4-fluorophenyl)-5-(1-(isoxazol-3-ylmethyl)piperidin-4-yl)-1-methyl-1H-pyrazol-4-yl)imidazo[1,2-b]pyridazin-2-yl)isonicotinamide] | 1 nM | 1.1 nM
18 | Cn1cc(-c2ccc3nc(NC(=O)Nc4ccccc4)cn3n2)c(-c2ccc(F)cc2)n1 [Compound 186, 1-(6-(3-(4-Fluorophenyl)-1-methyl-1H-pyrazol-4-yl)imidazo[1,2-b]pyridazin-2-yl)-3-phenylurea] | 114 nM | 14.6 nM
19 | Cc1nc(-c2cccnc2)sc1C(=O)Nc1cn2nc(-c3c(-c4ccc(F)cc4)nn(C)c3N3CCOCC3)ccc2n1 [Compound 146, N-(6-(3-(4-fluorophenyl)-1-methyl-5-morpholino-1H-pyrazol-4-yl)imidazo [1,2-b]pyridazin-2-yl)-4-methyl-2-(pyridin-3-yl)thiazole-5-carboxamide] | 4.9 nM | 0.5 nM
20 | Cn1nc(-c2ccc(F)cc2)c(-c2ccc3nc(NC(=O)c4ccnc(F)c4)cn3n2)c1-c1ccncc1 [Compound 202, 2-Fluoro-N-(6-(3-(4-fluorophenyl)-1-methyl-5-(pyridin-4-yl)-1H-pyrazol-4-yl)imidazo[1,2-b]pyridazin-2-yl)isonicotinamide] | 8.1 nM | 0.5 nM
21 | Cn1nc(-c2ccc(F)cc2)c(-c2ccc3nc(NC(=O)c4ccnc(F)c4)cn3n2)c1N1CCN(CCS(C)(=O)=O)CC1 [Compound 126, 2-Fluoro-N-(6-(3-(4-fluorophenyl)-1-methyl-5-(4-(2-(methylsulfonyl)ethyl)piperazin-1-yl)-1H-pyrazol-4-yl)imidazo[1,2-b]pyridazin-2-yl)isonicotinamide] | 124 nM | 2.9 nM
22 | Cc1nc(-c2cccnc2)sc1C(=O)Nc1cn2nc(-c3c(-c4ccc(F)cc4)nn(C)c3C3CCN(Cc4ccon4)CC3)ccc2n1 [Compound 176, N-(6-(3-(4-fluorophenyl)-5-(1-(isoxazol-3-ylmethyl)piperidin-4-yl)-1-methyl-1H-pyrazol-4-yl)imidazo[1,2-b]pyridazin-2-yl)-4-methyl-2-(pyridin-3-yl)thiazole-5-carboxamide] | 0.4 nM | 1 nM
23 | Cn1nc(-c2ccc(F)cc2)c(-c2ccc3nc(NC(=O)c4cc(F)nc(F)c4)cn3n2)c1N1CCOCC1 [Compound 145, 2,6-difluoro-N-(6-(3-(4-fluorophenyl)-1-methyl-5-morpholino-1H-pyrazol-4-yl)imidazo[1,2-b]pyridazin-2-yl) isonicotinamide] | 22.8 nM | 1.4 nM
24 | Cn1nc(-c2ccc(F)cc2)c(-c2ccc3nc(NC(=O)c4ccnc(N5CCOCC5)c4)cn3n2)c1C1CCOCC1 [Compound 198, N-(6-(3-(4-Fluorophenyl)-1-methyl-5-(tetrahydro-2H-pyran-4-yl)-1H-pyrazol-4-yl)imidazo[1,2-b]pyridazin-2-yl)-2-morpholinoisonicotinamide] | 4.8 nM | 0.5 nM
25 | Cc1nc(-c2ccncc2)sc1C(=O)Nc1cn2nc(-c3c(-c4ccc(F)cc4)nn(C)c3C3CCN(CC(N)=O)CC3)ccc2n1 [Compound 184, N-(6-(5-(1-(2-Amino-2-oxoethyl)piperidin-4-yl)-3-(4-fluorophenyl)-1-methyl-1H-pyrazol-4-yl)imidazo[1,2-b]pyridazin-2-yl)-4-methyl-2-(pyridin-4-yl)thiazole-5-carboxamide] | 1.2 nM | 0.3 nM
26 | Cn1cc(-c2ccc3nc(NC(=O)c4csc(Br)n4)cn3n2)c(-c2ccc(F)cc2)n1 [Compound 13, 2-bromo-N-(6-(3-(4-fluorophenyl)-1-methyl-1H-pyrazol-4-yl)imidazo[1,2-b]pyridazin-2-yl)thiazole-4-carboxamide] | 22.9 nM | 2.6 nM
